Patent US9428487B2, “Heteroaromatic amides and thioamides as pesticides” (Bayer Intellectual Property GmbH, priority 2008, dated 2016)
Like-named read-outs stand apart in the source and are kept apart here.

Columns and labels:
[1] = Determination of log P values by HPLC on reversed-phase column (formic acid method); assay type: physicochemical; details: reversed-phase C 18, acidic range (pH 3.4), formic acid eluents, 55° C., read-out: logP (HCOOH)
Method: 1) Description of Method for Determining the Log P Values (Formic Acid Method)
The log P values reported in the table were determined according to EEC-Directive 79/831 Annex V.A8 by HPLC (High Performance Liquid Chromatography) on a reversed-phase column (C 18). […]
Eluent A: acetonitrile+1 ml of formic acid/liter. Eluent B: water+0.9 ml of formic acid/liter.
Gradient: from 10% eluent A/90% eluent B to 95% eluent A/5% eluent B in 4.25 min
The calibration was effected with unbranched alkan-2-ones (with 3 to 16 carbon atoms), whose log P values are known (determination of the log P values on the basis of the retention times by linear interpolation between two successive alkanones). The lambda-max values were determined with reference to the UV spectra from 200 nm to 400 nm in the maxima of the chromatographic signals.

[2] = system: green peach aphid (Myzus persicae); assay: Myzus test; assay type: in vivo; details: read-out: efficacy (aphids killed)
Method: • Solvent: 78.0 parts by weight of acetone • 1.5 parts by weight of dimethylformamide • Emulsifier: 0.5 part by weight of alkylaryl polyglycol ether
To produce an appropriate active ingredient formulation, 1 part by weight of active ingredient is mixed with the amounts of solvent and emulsifier specified and the concentrate is diluted to the desired concentration with emulsifier-containing water.
Chinese cabbage leaf slices (Brassica pekinensis) infested by all stages of the green peach aphid (Myzus persicae) are sprayed with an active ingredient formulation of the desired concentration.
After the desired time, the efficacy in % is determined 100% means that all aphids have been killed; 0% means that no aphids have been killed.

[3] = reversed-phase HPLC column (C 18), pH 3.4, HPLC
[4] = application rate 500 g/ha, spray on Chinese cabbage leaf slices

| SMILES | chromatographic logP [1, 3] | pest or weed control at 500 g/ha [2, 4] [%] | chromatographic logP ([1]; HPLC) | pest or weed control at 500 g/ha ([2]; in Brassica rapa) [%] |
| --- | --- | --- | --- | --- |
| COC1(NC(=O)c2cnc(-c3cccnc3)s2)CC1 [Compound 70] | 1.14 | ≥ 70 | – | – |
| CSC[C@H](C)N(C)C(=O)c1sc(-c2cccnc2)nc1C [Compound 71] | 1.71 | ≥ 70 | – | – |
| NC(=O)c1cnc(-c2cccnc2)s1 [Compound 72] | 0.29 | ≥ 70 | – | – |
| CSCC(C)(C)NC(=O)c1sc(-c2cccnc2)nc1C [Compound 73] | 2.05 | ≥ 70 | – | – |
| Cc1nccc(CNC(=O)c2cnc(-c3cccnc3)s2)n1 [Compound 74] | 0.94 | ≥ 70 | – | – |
| Cc1nc(-c2cccnc2)sc1C(=O)NCC(C)F (stereo not shown) [Compound 75] | 1.34 | ≥ 70 | – | – |
| Cc1cnc(CNC(=O)c2sc(-c3cccnc3)nc2C)cn1 [Compound 77] | 1.15 | ≥ 70 | – | – |
| Cc1nc(-c2ccc[n+]([O-])c2)sc1C(=O)NCC(F)(F)F [Compound 78] | 1.31 | ≥ 70 | – | – |
| N#CCNC(=O)c1cnc(-c2cccnc2)s1 [Compound 79] | 0.88 | ≥ 70 | – | – |
| Cc1nc(-c2cccnc2)sc1C(=O)N(C)CC(C)F (stereo not shown) [Compound 80] | 1.5 | ≥ 70 | – | – |
| O=C(NCc1ccncn1)c1cnc(-c2cccnc2)s1 [Compound 81] | 0.73 | ≥ 70 | – | – |
| Cc1nc(-c2cccnc2)sc1C(=O)NCC(F)(F)C(F)F [Compound 82] | 1.75 | ≥ 70 | – | – |
| Cc1nc(-c2cccnc2)sc1C(=O)N[C@@H]1C[C@@H]1F [Compound 83] | 1.16 | ≥ 70 | – | – |
| COC(=O)C(C)NC(=O)c1sc(-c2cccnc2)nc1C (stereo not shown) [Compound 84] | 1.36 | ≥ 70 | – | – |
| Cc1nc(-c2cccnc2)sc1C(=O)N(C)CCF [Compound 85] | 1.23 | ≥ 70 | – | – |
| Cc1nc(-c2cccnc2)sc1C(=O)NC(C)CC(F)(F)F (stereo not shown) [Compound 86] | 1.94 | ≥ 70 | – | – |
| Cc1nc(-c2cccnc2)sc1C(=O)NC(C)c1ccccn1 (stereo not shown) [Compound 87] | 1.1 | ≥ 70 | – | – |
| CCOC1(NC(=O)c2cnc(-c3cccnc3)s2)CC1 [Compound 88] | 1.31 | ≥ 70 | – | – |
| CCC(=O)N(CC(F)(F)F)C(=O)c1sc(-c2cccnc2)nc1C [Compound 89] | 2.61 | ≥ 70 | – | – |
| Cc1nc(-c2cccnc2)sc1C(=O)NCc1ccccn1 [Compound 90] | 0.78 | ≥ 70 | – | – |
| Cc1nc(-c2cccnc2)sc1C(=O)N(C)Cc1ncccn1 [Compound 91] | 1.02 | ≥ 70 | – | – |
| Cc1nc(-c2cccnc2)sc1C(=O)NCC1OCCCO1 [Compound 92] | 1.27 | ≥ 70 | – | – |
| Cc1nc(-c2cccnc2)sc1C(=O)N(C)Cc1ccccn1 [Compound 93] | 1.19 | ≥ 70 | – | – |
| Cc1nc(-c2cccnc2)sc1C(=O)NC(C)(C#N)C1CC1 (stereo not shown) [Compound 94] | 1.76 | ≥ 70 | – | – |
| COC(=O)N(CC(F)(F)F)C(=O)c1sc(-c2cccnc2)nc1C [Compound 116] | – | – | 2.46 | ≥ 70 |
| C#CCOC(=O)N(CC(F)(F)F)C(=O)c1sc(-c2cccnc2)nc1C [Compound 117] | – | – | 2.63 | ≥ 70 |
| CCOC(=O)NC(C)(C)CNC(=O)c1sc(-c2cccnc2)nc1C [Compound 120] | – | – | 1.75 | ≥ 70 |

Continued, in another order:

| chromatographic logP [1, 3] | SMILES | pest or weed control at 500 g/ha [2, 4] [%] | chromatographic logP ([1]; HPLC) | pest or weed control at 500 g/ha ([2]; in Brassica rapa) [%] |
| --- | --- | --- | --- | --- |
| 1.24 | Cc1cc(C)nc(CNC(=O)c2sc(-c3cccnc3)nc2C)n1 [Compound 95] | ≥ 70 | – | – |
| 1.98 | Cc1nc(-c2cccnc2)sc1C(=O)NCC(F)(Cl)Cl [Compound 96] | ≥ 70 | – | – |
| 1.42 | Cc1nc(-c2cccnc2)sc1C(=O)NC(C)CF (stereo not shown) [Compound 97] | ≥ 70 | – | – |
| 1.45 | Cc1cc(CNC(=O)c2sc(-c3cccnc3)nc2C)no1 [Compound 98] | ≥ 70 | – | – |
| 1.28 | COCN(Cc1ncccn1)C(=O)c1sc(-c2cccnc2)nc1C [Compound 99] | ≥ 70 | – | – |
| 2.17 | Cc1nc(-c2cccnc2)sc1C(=O)NCC(Cl)(Cl)Cl [Compound 100] | ≥ 70 | – | – |
| 1.33 | COC(CNC(=O)c1sc(-c2cccnc2)nc1C)OC [Compound 101] | ≥ 70 | – | – |
| 1.3 | CN(Cc1ncccn1)C(=O)c1cnc(-c2cccnc2)s1 [Compound 102] | ≥ 70 | – | – |
| 1.4 | Cc1nc(-c2cccnc2)sc1C(=O)NCC1CCCO1 (stereo not shown) [Compound 103] | ≥ 70 | – | – |
| 1.64 | Cc1nc(-c2cccnc2)sc1C(=O)NCC1CCCCO1 (stereo not shown) [Compound 104] | ≥ 70 | – | – |
| 1.23 | Cc1cc(CNC(=O)c2sc(-c3cccnc3)nc2C)n(C)n1 [Compound 105] | ≥ 70 | – | – |
| 0.61 | O=C(NCc1ccccn1)c1cnc(-c2cccnc2)s1 [Compound 106] | ≥ 70 | – | – |
| 1.03 | Cc1nccc(CNC(=O)c2sc(-c3cccnc3)nc2C)n1 [Compound 107] | ≥ 70 | – | – |
| 1.78 | CCOC(CNC(=O)c1sc(-c2cccnc2)nc1C)OCC [Compound 108] | ≥ 70 | – | – |
| 1.61 | COCN(C(=O)c1sc(-c2cccnc2)nc1C)C(C)C(=O)OC (stereo not shown) [Compound 109] | ≥ 70 | – | – |
| 1.22 | Cc1nc(-c2cccnc2)sc1C(=O)NC1CCS(=O)(=O)C1 (stereo not shown) [Compound 110] | ≥ 70 | – | – |
| 1.45 | Cc1nc(-c2cccnc2)sc1C(=O)N(C)C(C)c1ccccn1 (stereo not shown) [Compound 111] | ≥ 70 | – | – |
| 0.81 | O=C(NCc1ncccn1)c1cnc(-c2cccnc2)s1 [Compound 112] | ≥ 70 | – | – |

| chromatographic logP [1, 3] | SMILES | pest or weed control at 500 g/ha [2, 4] [%] | chromatographic logP ([1]; HPLC) | pest or weed control at 500 g/ha ([2]; in Brassica rapa) [%] |
| --- | --- | --- | --- | --- |
| 1.46 | COCN(CCF)C(=O)c1sc(-c2cccnc2)nc1C [Compound 113] | ≥ 70 | – | – |
| 1.28 | Cc1nc(-c2cccnc2)sc1C(=O)NC(C)(C)CS(C)(=O)=O [Compound 114] | ≥ 70 | – | – |
| 1.71 | Cc1nc(-c2cccnc2)sc1C(=O)NCc1ccc(Cl)nc1 [Compound 115] | ≥ 70 | – | – |
| 1.14 | O=C(N[C@H]1C[C@@H]1F)c1cnc(-c2cccnc2)s1 [Compound 118] | ≥ 70 | – | – |
| 1.71 | COCN(Cc1cc(C)on1)C(=O)c1sc(-c2cccnc2)nc1C [Compound 119] | ≥ 70 | – | – |
| 1.98 | Cc1nc(-c2cccnc2)sc1C(=O)NCC(F)(F)Br [Compound 121] | ≥ 70 | – | – |
| 1.13 | C=CC[n+]1cccc(-c2nc(C)c(C(=O)NCC(F)(F)F)s2)c1 [Compound 122] | ≥ 70 | – | – |
| 2.42 | Cc1nc(-c2cccnc2)sc1C(=O)NC1CCC(C(F)(F)F)CC1 (stereo not shown) [Compound 123] | ≥ 70 | – | – |
| 2.11 | Cc1nc(-c2cccnc2)sc1C(=O)N(CCCF)CC(F)(F)F [Compound 124] | ≥ 70 | – | – |
| 1.69 | Cc1nc(-c2cccnc2)sc1C(=O)NCC(C)Cl (stereo not shown) [Compound 125] | ≥ 70 | – | – |
| 0.9 | Cc1nc(-c2cccnc2)sc1C(=O)NCc1ccncn1 [Compound 126] | ≥ 70 | – | – |
| 0.98 | CN(Cc1cccnc1)C(=O)c1cnc(-c2cccnc2)s1 [Compound 127] | ≥ 70 | – | – |
| 0.75 | Cc1nc(-c2cccnc2)sc1C(=O)NNc1ncccn1 [Compound 128] | ≥ 70 | – | – |
| 1.23 | COC1(NC(=O)c2sc(-c3cccnc3)nc2C)CC1 [Compound 129] | ≥ 70 | – | – |
| 1.38 | Cc1nc(-c2cccnc2)sc1C(=O)NCc1nccs1 [Compound 130] | ≥ 70 | – | – |
| 2.56 | Cc1nc(-c2cccnc2)sc1C(=O)N(Cc1ccco1)CC(F)(F)F [Compound 131] | ≥ 70 | – | – |
| 1.51 | Cc1nc(-c2cccnc2)sc1C(=O)NCC1OCC(CCl)O1 (stereo not shown) [Compound 132] | ≥ 70 | – | – |
